Measurements reported in patent US20260297080A1, “BICYCLIC COMPOUNDS AS CDK INHIBITORS” (BeOne Medicines I GmbH, priority 2022, published 2026).

Legend:
CDK2/Cyclin E1 = CDK2/Cyclin E1 (Homo sapiens, UniProt P24941); test: CDK2/Cyclin E1 Biochemical Assay (TR-FRET), 0.060 mM ATP; details: 0.15 μM Rb (Ser780)-biotin substrate, pH7.0, 60 min preincubation, 120 min reaction, room temperature
Method: (§1) CDK2/Cyclin E1 and CDK1/Cyclin B1 Biochemical Assays
(§2) Compounds disclosed herein were tested for inhibition of CDK2/Cyclin E1 or CDK1/Cyclin B1 kinase in an assay based on the time-resolved fluorescence-resonance energy transfer (TR-FRET) methodology. The assay was carried out in 384-well low volume black plates in a reaction mixture containing CDK2/Cyclin E1 or CDK1/Cyclin B1, 0.060 mM ATP for CDK2/Cyclin E1 or 0.015 mM ATP for CDK1/Cyclin B1, 0.15 μM Rb (Ser780)-biotin substrate and 0-10 μM compound in buffer containing 50 mM HEPES pH7.0, 0.02% NaN3, 0.01% BSA, 0.1 mM Orthovanadate, 50 mM MgCl2, 1 mM DTT and 0.005% Tween-20. The kinase was incubated with compound for 60 minutes at room temperature and the reaction was initiated by the addition of ATP and Rb (Ser780)-biotin substrate. After reaction at room temperature for 120 minutes, an equal volume of stop/detection solution was added according to the manufacture's instruction (Cisbio Bioassays). The stop/detection solution contained Streptavidin-XL665 and Anti-pRb (Ser780) mAb-Eu Cryptate in Detection buffer (Cisbio Bioassays). Plates were incubated at room temperature for 60 minutes, and the TR-FRET signals (ex337 nm, em665 nm/620 nm) were recorded on a PHERAstar FSX plate reader (BMG Labtech). The inhibition percentage of CDK2/Cyclin E1 or CDK1/Cyclin B1 kinase activity in presence of increasing concentrations of compounds was calculated based on the ratio of fluorescence at 665 nm to that at 620 nm. The IC50 for each compound was derived from fitting the data to the four-parameter logistic equation by Dotmatics.

CDK1/Cyclin B1 = CDK1/Cyclin B1 (Homo sapiens, UniProt P06493); test: CDK1/Cyclin B1 Biochemical Assay (TR-FRET), 0.015 mM ATP; details: 0.15 μM Rb (Ser780)-biotin substrate, pH7.0, 60 min preincubation, 120 min reaction, room temperature
CDK1/Cyclin B1, sequence (P06493 whole entry): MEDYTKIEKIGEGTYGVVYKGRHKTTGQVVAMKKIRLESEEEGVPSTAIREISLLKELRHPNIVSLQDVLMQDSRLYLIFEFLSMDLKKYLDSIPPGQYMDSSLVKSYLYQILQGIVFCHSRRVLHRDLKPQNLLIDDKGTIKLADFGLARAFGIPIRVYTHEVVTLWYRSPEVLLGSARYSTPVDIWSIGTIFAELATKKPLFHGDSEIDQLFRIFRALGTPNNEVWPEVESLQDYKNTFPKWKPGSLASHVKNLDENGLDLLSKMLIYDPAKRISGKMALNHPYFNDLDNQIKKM
CDK1/Cyclin B1, sequence (P14635 whole entry partner): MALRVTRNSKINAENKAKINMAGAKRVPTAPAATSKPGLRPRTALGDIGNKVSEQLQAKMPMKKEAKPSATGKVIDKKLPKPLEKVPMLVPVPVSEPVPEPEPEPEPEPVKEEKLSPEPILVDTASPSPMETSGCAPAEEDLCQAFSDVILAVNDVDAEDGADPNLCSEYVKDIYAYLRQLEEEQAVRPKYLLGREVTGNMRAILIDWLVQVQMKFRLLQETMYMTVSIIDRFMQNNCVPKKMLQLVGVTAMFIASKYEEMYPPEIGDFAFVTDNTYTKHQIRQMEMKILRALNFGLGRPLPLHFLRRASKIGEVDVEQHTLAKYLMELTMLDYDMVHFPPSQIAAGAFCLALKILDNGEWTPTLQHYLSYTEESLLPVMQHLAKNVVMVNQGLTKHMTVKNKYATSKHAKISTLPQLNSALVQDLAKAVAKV
Method: as §1, §2

CN1c2ccc(Nc3cc([C@@H]4CC[C@H](OC(=O)NC5(CO)CCC5)C4)[nH]n3)cc2CS1(=O)=O (relative stereo) [Example 386, cis-3-(3-((1-methyl-2,2-dioxido-1,3-dihydrobenzo[c]isothiazol-5-yl)amino)-1H-pyrazol-5-yl)cyclopentyl(1-(hydroxymethyl)cyclobutyl)carbamate]
IC50 (CDK2/Cyclin E1): 1 nM | IC50 (CDK1/Cyclin B1): 28 nM

CC(C)NC(=O)O[C@H]1CC[C@@H](c2cc(Nc3cc4c(cc3F)S(=O)(=O)NC4)n[nH]2)C1 (single isomer, unassigned) [Example 12a, cis-3-(3-((6-fluoro-1,1-dioxido-2,3-dihydrobenzo[d]isothiazol-5-yl)amino)-1H-pyrazol-5-yl)cyclopentyl isopropylcarbamate]
IC50 (CDK2/Cyclin E1): 10 nM | IC50 (CDK1/Cyclin B1): 921 nM

CC(C)NC(=O)O[C@H]1CC[C@@H](c2cc(Nc3ccc4c(c3F)CN(C3COC3)S4(=O)=O)n[nH]2)C1 (single isomer, unassigned) [Example 133b, cis-3-(3-((4-fluoro-2-(oxetan-3-yl)-1,1-dioxido-2,3-dihydrobenzo[d]isothiazol-5-yl)amino)-1H-pyrazol-5-yl)cyclopentyl isopropylcarbamate]
IC50 (CDK2/Cyclin E1): 8.6 nM | IC50 (CDK1/Cyclin B1): 456 nM

CC(C)NC(=O)O[C@H]1CC[C@@H](c2cc(Nc3ccc4c(c3F)C(C)(C)NS4(=O)=O)n[nH]2)C1 (relative stereo) [Example 55, cis-3-(3-((4-fluoro-3,3-dimethyl-1,1-dioxido-2,3-dihydrobenzo[d]isothiazol-5-yl)amino)-1H-pyrazol-5-yl)cyclopentyl isopropylcarbamate]
IC50 (CDK2/Cyclin E1): 71 nM | IC50 (CDK1/Cyclin B1): 1890 nM

CCCNC(=O)O[C@H]1CC[C@@H](c2cc(Nc3ccc4c(c3Cl)CNS4(=O)=O)n[nH]2)C1 (racemic) [Example 39, cis-3-(3-((4-chloro-1,1-dioxido-2,3-dihydrobenzo[d]isothiazol-5-yl)amino)-1H-pyrazol-5-yl)cyclopentyl propylcarbamate]
IC50 (CDK2/Cyclin E1): 15 nM | IC50 (CDK1/Cyclin B1): 374 nM

O=C(NCC1CC1)O[C@H]1CC[C@@H](c2cc(Nc3ccc4c(c3F)CNS4(=O)=O)n[nH]2)C1 (relative stereo) [Example 414, cis-3-(3-((4-fluoro-1,1-dioxido-2,3-dihydrobenzo[d]isothiazol-5-yl)amino)-1H-pyrazol-5-yl)cyclopentyl(cyclopropylmethyl)carbamate]
IC50 (CDK2/Cyclin E1): 7.3 nM | IC50 (CDK1/Cyclin B1): 232 nM

CC(C)NC(=O)O[C@H]1CC[C@@H](c2cc(Nc3c(F)cc4c(c3O)CNS4(=O)=O)n[nH]2)C1 (relative stereo) [Example 406, cis-3-(3-((6-fluoro-4-hydroxy-1,1-dioxido-2,3-dihydrobenzo[d]isothiazol-5-yl)amino)-1H-pyrazol-5-yl)cyclopentyl isopropylcarbamate]
IC50 (CDK2/Cyclin E1): 601 nM | IC50 (CDK1/Cyclin B1): > 10000 nM

CC(C)NC(=O)N[C@H]1CC[C@@H](c2cc(Nc3ccc4c(c3)CNS4(=O)=O)n[nH]2)C1 (relative stereo) [Example 19, cis-1-(3-(3-((1,1-dioxido-2,3-dihydrobenzo[d]isothiazol-5-yl)amino)-1H-pyrazol-5-yl)cyclopentyl)-3-isopropylurea]
IC50 (CDK2/Cyclin E1): 305 nM | IC50 (CDK1/Cyclin B1): 1070 nM

CC(C)NC(=O)O[C@@H]1CC[C@H](c2cc(Nc3ccc4c(c3)NS(=O)(=O)C4)n[nH]2)C1 (stereo in doubt) [Example 303a, cis-3-(3-((2,2-dioxido-1,3-dihydrobenzo[c]isothiazol-6-yl)amino)-1H-pyrazol-5-yl)cyclopentyl isopropylcarbamate]
IC50 (CDK2/Cyclin E1): 2.6 nM | IC50 (CDK1/Cyclin B1): 48 nM

CC(C)NC(=O)O[C@H]1CC[C@@H](c2cc(Nc3ccc4c(c3F)NS(=O)(=O)C4)n[nH]2)C1 (relative stereo) [Example 312, cis-3-(3-((7-fluoro-2,2-dioxido-1,3-dihydrobenzo[c]isothiazol-6-yl)amino)-1H-pyrazol-5-yl)cyclopentyl isopropylcarbamate]
IC50 (CDK2/Cyclin E1): 4.3 nM | IC50 (CDK1/Cyclin B1): 147 nM

O=C(NC1CCC1)O[C@H]1CC[C@@H](c2cc(Nc3ccc4c(c3)CS(=O)(=O)N4)n[nH]2)C1 (single isomer, unassigned) [Example 380b, cis-3-(3-((2,2-dioxido-1,3-dihydrobenzo[c]isothiazol-5-yl)amino)-1H-pyrazol-5-yl)cyclopentyl cyclobutylcarbamate]
IC50 (CDK2/Cyclin E1): 0.9 nM | IC50 (CDK1/Cyclin B1): 23 nM

CC1(NC(=O)O[C@H]2CC[C@@H](c3cc(Nc4ccc5c(c4)NS(=O)(=O)C5)n[nH]3)C2)CC1 (relative stereo) [Example 307, cis-3-(3-((2,2-dioxido-1,3-dihydrobenzo[c]isothiazol-6-yl)amino)-1H-pyrazol-5-yl)cyclopentyl(1-methylcyclopropyl)carbamate]
IC50 (CDK2/Cyclin E1): 2.5 nM | IC50 (CDK1/Cyclin B1): 18 nM

CC(C)NC(=O)O[C@H]1CC[C@@H](c2cc(Nc3ccc4c(c3)CS(=O)(=O)N4CC(F)(F)F)n[nH]2)C1 (relative stereo) [Example 205, cis-3-(3-((2,2-dioxido-1-(2,2,2-trifluoroethyl)-1,3-dihydrobenzo[c]isothiazol-5-yl)amino)-1H-pyrazol-5-yl)cyclopentyl isopropylcarbamate]
IC50 (CDK2/Cyclin E1): 7.5 nM | IC50 (CDK1/Cyclin B1): 41 nM

CC[C@H](C)NC(=O)O[C@H]1CC[C@@H](c2cc(Nc3ccc4c(c3F)CS(=O)(=O)N4C3COC3)n[nH]2)C1 (single isomer, unassigned) [Example 261b]
IC50 (CDK2/Cyclin E1): 0.7 nM | IC50 (CDK1/Cyclin B1): 23 nM

Cc1c(Nc2cc([C@@H]3CC[C@H](OC(=O)NC(C)C)C3)[nH]n2)ccc2c1CN(C)S2(=O)=O (relative stereo) [Example 35, cis-3-(3-((2,4-dimethyl-1,1-dioxido-2,3-dihydrobenzo[d]isothiazol-5-yl)amino)-1H-pyrazol-5-yl)cyclopentyl isopropylcarbamate]
IC50 (CDK2/Cyclin E1): 8.9 nM | IC50 (CDK1/Cyclin B1): 296 nM

CC(C)NC(=O)O[C@H]1CC[C@@H](c2cc(Nc3ccc4c(c3)S(=O)(=O)NC4(C)C)n[nH]2)C1 (relative stereo) [Example 4, cis-3-(5-((3,3-dimethyl-1,1-dioxido-2,3-dihydrobenzo[d]isothiazol-6-yl)amino)-1H-pyrazol-3-yl)cyclopentyl isopropylcarbamate]
IC50 (CDK2/Cyclin E1): 8.6 nM | IC50 (CDK1/Cyclin B1): 184 nM

CN1c2ccc(Nc3cc([C@@H]4CC[C@H](OC(=O)NC5(C)CCC5)C4)[nH]n3)cc2CS1(=O)=O (relative stereo) [Example 233, cis-3-(3-((1-methyl-2,2-dioxido-1,3-dihydrobenzo[c]isothiazol-5-yl)amino)-1H-pyrazol-5-yl)cyclopentyl(1-methylcyclobutyl)carbamate]
IC50 (CDK2/Cyclin E1): 1.3 nM | IC50 (CDK1/Cyclin B1): 10 nM

O=C(O[C@H]1CC[C@@H](c2cc(Nc3ccc4c(c3)CS(=O)(=O)N4)n[nH]2)C1)N1CCOCC1 (relative stereo) [Example 382, cis-3-(3-((2,2-dioxido-1,3-dihydrobenzo[c]isothiazol-5-yl)amino)-1H-pyrazol-5-yl)cyclopentyl morpholine-4-carboxylate]
IC50 (CDK2/Cyclin E1): 9.7 nM | IC50 (CDK1/Cyclin B1): 214 nM

CC[C@H](C)NC(=O)O[C@H]1CC[C@@H](c2cc(Nc3ccc4c(c3F)CS(=O)(=O)N4C3COC3)n[nH]2)C1 (single isomer, unassigned) [Example 261a]
IC50 (CDK2/Cyclin E1): 1.3 nM | IC50 (CDK1/Cyclin B1): 119 nM

CC1(NC(=O)O[C@H]2CC[C@@H](c3cc(Nc4ccc5c(c4F)CS(=O)(=O)N5C4CC4)n[nH]3)C2)CCOC1 (relative stereo) [Example 368, cis-3-(3-((1-cyclopropyl-4-fluoro-2,2-dioxido-1,3-dihydrobenzo[c]isothiazol-5-yl)amino)-1H-pyrazol-5-yl)cyclopentyl(3-methyltetrahydrofuran-3-yl)carbamate]
IC50 (CDK2/Cyclin E1): 1.2 nM | IC50 (CDK1/Cyclin B1): 95 nM

CC(C)NC(=O)O[C@H]1CC[C@@H](c2cc(Nc3ccc4c(c3)C(C)NS4(=O)=O)n[nH]2)C1 (single isomer, unassigned) [Example 321d, cis-3-(3-((3-methyl-1,1-dioxido-2,3-dihydrobenzo[d]isothiazol-5-yl)amino)-1H-pyrazol-5-yl)cyclopentyl isopropylcarbamate]
IC50 (CDK2/Cyclin E1): 0.6 nM | IC50 (CDK1/Cyclin B1): 5.4 nM

CCCNC(=O)O[C@@H]1CC[C@H](c2cc(Nc3ccc4c(c3F)CS(=O)(=O)N4)n[nH]2)C1 (single isomer, unassigned) [Example 387a]
IC50 (CDK2/Cyclin E1): 3 nM | IC50 (CDK1/Cyclin B1): 137 nM

CC(C)NC(=O)O[C@H]1CC[C@@H](c2cc(Nc3ccc4c(c3F)CS(=O)(=O)N4)n[nH]2)C1 (single isomer, unassigned) [Example 251b]
IC50 (CDK2/Cyclin E1): 1 nM | IC50 (CDK1/Cyclin B1): 31 nM

CCCNC(=O)O[C@H]1CC[C@@H](c2cc(Nc3cc4c(cc3F)N(CCO)S(=O)(=O)C4)n[nH]2)C1 (relative stereo) [Example 297, cis-3-(3-((6-fluoro-1-(2-hydroxyethyl)-2,2-dioxido-1,3-dihydrobenzo[c]isothiazol-5-yl)amino)-1H-pyrazol-5-yl)cyclopentyl propylcarbamate]
IC50 (CDK2/Cyclin E1): 38 nM | IC50 (CDK1/Cyclin B1): 607 nM
